Assay results from US7455654B2, “Method and apparatus for reducing the incidence of tobacco use” (Alza Corporation, priority 2003, dated 2008).
Like-named read-outs stand apart in the source and are kept apart here.

Columns and labels:
[1] = 0.2 wt. % Tween 20
Experimental: A 30 wt. % nicotine HCl solution is prepared in water. To that solution is added 0.1 wt. % hydroxyethyl cellulose and 0.2 wt. % of the surfactant Tween 20. The coating solution is then applied to the microprojections using the coating methods described in U.S. Publication No. 2002/0132054.
(§1) An aqueous solution consisting of 5 wt. % nicotine base, 5 wt. % hydroxypropyl methylcellulose (HPMC, Methocel E5 premium LV EP JP, Dow Chemical Company, Midland Mich.) and 0.2 wt. % Tween 20 is prepared. The coating solution is then applied to the microprojections using the coating methods described in U.S. Publication No. 2002/0132054.

[2] = 2 cm^2 device coated with ca. 300 micrograms nicotine HCl, applied in humans with applicator
[3] = Experimental: An aqueous solution containing 40 wt. % nicotine hydrogen tartrate was prepared. Sufficient fluorescein was added to the solution to generate a 0.001 M concentration. This agent was used to assess the quality of the coating after drying.
A strip of titanium foil was prepared by washing the surface with acetone and drying. Five microliters of the coating solution (or formulation) was applied and dried for four hours at room temperature.

[4] = 2 cm^2 device coated with ca. 400 micrograms nicotine base; essentially immediate delivery on application to the skin
Experimental: as §1

## CN1CCCC1c1cccnc1.Cl (stereo not drawn) [nicotine HCl]
[1]; 30 wt. % nicotine HCl in water, 0.1 wt. % hydroxyethyl cellulose
  coating distribution across the projections: well distributed across the projections
[2]
  delivery of the nicotine contained on the projections: more than 70%

## CN1CCCC1c1cccnc1.O=C(O)C(O)C(O)C(=O)O (stereo not drawn) [nicotine hydrogen tartrate]
[3]; aqueous 40 wt. % nicotine hydrogen tartrate with 0.001 M fluorescein, 5 microliters on titanium foil, dried four hours at room temperature, no wetting agent
  quality of the coating: very poor
[3]; same coating solution with 0.1 wt. % hydroxyethyl cellulose added
  quality of the coating: noticeably improved

## CN1CCC[C@H]1c1cccnc1 [nicotine base]
[1]; aqueous 5 wt. % nicotine base, 5 wt. % HPMC
  coating distribution across the projections: well distributed across the projections
[4]
  amount of nicotine base delivered to the user: 300 micrograms
